Tests used:
Conditions in all cases: binder
[1] = molecular target: T1, MYT1 (Homo sapiens, UniProt Q99640)
T1 sequence (Q99640 1-499): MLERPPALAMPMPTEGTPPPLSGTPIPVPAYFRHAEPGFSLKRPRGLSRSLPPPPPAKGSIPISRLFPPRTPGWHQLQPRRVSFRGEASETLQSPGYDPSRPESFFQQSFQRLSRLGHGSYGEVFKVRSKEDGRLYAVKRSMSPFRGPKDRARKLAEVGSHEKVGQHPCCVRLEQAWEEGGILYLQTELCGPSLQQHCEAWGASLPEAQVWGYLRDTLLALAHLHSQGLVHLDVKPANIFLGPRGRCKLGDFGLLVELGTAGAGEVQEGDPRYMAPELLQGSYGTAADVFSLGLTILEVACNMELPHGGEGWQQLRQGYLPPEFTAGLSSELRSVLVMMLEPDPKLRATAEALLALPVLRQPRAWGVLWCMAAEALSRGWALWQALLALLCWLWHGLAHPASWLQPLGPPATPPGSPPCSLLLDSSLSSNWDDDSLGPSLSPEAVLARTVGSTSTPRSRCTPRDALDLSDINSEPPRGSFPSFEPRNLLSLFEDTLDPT

[2] = molecular target: T2, DRAK2 (Homo sapiens, UniProt O94768)
T2 sequence (O94768 1-372): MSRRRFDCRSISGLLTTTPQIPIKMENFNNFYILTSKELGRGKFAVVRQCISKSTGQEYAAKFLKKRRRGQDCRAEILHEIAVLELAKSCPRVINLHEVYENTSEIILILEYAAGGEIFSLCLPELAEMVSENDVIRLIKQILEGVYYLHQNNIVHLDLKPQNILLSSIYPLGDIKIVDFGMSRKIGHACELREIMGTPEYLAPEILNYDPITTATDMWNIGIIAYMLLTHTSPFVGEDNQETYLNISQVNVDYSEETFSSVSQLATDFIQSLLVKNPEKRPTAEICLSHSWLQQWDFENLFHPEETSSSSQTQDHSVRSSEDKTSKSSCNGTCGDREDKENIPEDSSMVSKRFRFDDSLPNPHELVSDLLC

[3] = molecular target: T3, Erk7 (Homo sapiens, UniProt Q8TD08)
T3 sequence (Q8TD08 1-544): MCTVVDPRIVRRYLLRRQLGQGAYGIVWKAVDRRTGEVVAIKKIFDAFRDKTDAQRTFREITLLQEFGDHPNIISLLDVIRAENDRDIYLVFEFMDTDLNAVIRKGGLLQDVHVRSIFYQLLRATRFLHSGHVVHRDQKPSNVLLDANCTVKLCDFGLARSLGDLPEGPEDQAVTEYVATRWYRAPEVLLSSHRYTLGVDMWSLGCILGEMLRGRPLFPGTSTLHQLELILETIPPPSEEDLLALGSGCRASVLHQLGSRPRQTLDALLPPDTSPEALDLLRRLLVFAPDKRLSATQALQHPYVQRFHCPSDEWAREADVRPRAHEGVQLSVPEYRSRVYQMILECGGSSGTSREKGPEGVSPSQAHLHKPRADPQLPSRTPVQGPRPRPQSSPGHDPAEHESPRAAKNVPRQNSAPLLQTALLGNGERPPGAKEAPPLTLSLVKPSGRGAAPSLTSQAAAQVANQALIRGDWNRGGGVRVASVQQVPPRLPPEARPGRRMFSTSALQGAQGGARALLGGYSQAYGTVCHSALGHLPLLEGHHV

[4] = molecular target: CK2a1 (Homo sapiens, UniProt P68400)
[5] = molecular target: CDK2 (Homo sapiens, UniProt P24941)
[6] = molecular target: T4, DMPK1 (Homo sapiens, UniProt Q09013)
T4 sequence (Q09013 1-629): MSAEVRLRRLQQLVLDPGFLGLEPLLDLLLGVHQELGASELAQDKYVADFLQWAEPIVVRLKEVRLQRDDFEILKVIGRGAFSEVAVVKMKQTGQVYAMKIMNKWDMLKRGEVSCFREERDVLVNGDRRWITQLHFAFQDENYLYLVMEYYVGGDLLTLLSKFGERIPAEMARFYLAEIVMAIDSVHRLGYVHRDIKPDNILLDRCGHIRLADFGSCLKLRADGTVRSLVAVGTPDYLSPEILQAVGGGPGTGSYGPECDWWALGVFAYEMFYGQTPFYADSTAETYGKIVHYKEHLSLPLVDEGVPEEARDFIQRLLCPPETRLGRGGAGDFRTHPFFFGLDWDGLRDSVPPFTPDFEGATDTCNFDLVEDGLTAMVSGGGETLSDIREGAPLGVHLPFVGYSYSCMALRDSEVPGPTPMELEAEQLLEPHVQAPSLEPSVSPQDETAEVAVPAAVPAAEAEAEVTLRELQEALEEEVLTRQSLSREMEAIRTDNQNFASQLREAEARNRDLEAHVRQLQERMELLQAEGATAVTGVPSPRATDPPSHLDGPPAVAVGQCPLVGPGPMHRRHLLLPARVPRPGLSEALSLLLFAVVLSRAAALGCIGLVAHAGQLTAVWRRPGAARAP

[7] = molecular target: JNK3 (Homo sapiens, UniProt P53779)
[8] = molecular target: BIKE (Homo sapiens, UniProt Q9NSY1)
[9] = molecular target: MST3 (Homo sapiens, UniProt Q9Y6E0)
MST3, sequence (Q9Y6E0 whole entry): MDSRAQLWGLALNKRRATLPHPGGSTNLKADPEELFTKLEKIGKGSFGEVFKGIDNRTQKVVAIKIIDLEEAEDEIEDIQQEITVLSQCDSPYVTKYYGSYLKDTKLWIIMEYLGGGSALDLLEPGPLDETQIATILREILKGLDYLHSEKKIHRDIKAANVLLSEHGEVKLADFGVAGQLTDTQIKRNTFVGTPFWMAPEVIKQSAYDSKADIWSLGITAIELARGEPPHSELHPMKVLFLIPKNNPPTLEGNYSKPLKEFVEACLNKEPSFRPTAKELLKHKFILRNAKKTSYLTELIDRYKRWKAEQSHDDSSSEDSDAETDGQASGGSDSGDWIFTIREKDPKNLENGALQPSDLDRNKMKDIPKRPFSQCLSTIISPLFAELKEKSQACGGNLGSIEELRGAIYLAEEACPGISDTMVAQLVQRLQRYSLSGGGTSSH

BIKE, sequence (Q9NSY1 whole entry): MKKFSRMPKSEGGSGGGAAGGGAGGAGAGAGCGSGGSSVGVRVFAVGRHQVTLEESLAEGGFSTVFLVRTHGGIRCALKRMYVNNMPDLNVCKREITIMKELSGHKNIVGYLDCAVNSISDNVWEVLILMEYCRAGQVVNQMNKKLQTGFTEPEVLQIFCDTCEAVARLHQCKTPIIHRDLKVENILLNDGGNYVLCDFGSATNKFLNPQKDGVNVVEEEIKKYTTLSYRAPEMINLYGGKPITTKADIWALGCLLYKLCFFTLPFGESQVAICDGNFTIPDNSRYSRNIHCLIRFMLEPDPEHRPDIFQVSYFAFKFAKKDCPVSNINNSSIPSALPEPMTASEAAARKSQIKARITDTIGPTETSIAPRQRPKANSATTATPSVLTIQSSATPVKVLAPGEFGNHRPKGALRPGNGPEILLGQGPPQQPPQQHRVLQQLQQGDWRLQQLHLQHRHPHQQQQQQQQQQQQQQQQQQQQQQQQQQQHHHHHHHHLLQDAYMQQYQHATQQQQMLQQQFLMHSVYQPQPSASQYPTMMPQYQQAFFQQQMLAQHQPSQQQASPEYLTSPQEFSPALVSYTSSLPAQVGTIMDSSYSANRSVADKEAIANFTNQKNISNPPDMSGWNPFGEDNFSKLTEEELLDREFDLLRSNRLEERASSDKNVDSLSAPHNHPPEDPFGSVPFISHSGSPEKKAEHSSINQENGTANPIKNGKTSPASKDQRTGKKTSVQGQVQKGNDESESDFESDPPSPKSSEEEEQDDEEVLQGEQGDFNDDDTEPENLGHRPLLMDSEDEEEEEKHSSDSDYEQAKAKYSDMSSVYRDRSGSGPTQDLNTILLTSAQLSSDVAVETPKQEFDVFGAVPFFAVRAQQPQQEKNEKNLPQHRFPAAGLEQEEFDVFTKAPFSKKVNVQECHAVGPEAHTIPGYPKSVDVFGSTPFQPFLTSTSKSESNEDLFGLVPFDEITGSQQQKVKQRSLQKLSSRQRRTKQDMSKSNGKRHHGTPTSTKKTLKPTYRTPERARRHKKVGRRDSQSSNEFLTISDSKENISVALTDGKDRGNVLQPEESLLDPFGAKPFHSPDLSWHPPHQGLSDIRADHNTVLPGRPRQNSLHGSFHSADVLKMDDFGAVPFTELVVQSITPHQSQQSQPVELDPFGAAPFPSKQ
JNK3, sequence (P53779 whole entry): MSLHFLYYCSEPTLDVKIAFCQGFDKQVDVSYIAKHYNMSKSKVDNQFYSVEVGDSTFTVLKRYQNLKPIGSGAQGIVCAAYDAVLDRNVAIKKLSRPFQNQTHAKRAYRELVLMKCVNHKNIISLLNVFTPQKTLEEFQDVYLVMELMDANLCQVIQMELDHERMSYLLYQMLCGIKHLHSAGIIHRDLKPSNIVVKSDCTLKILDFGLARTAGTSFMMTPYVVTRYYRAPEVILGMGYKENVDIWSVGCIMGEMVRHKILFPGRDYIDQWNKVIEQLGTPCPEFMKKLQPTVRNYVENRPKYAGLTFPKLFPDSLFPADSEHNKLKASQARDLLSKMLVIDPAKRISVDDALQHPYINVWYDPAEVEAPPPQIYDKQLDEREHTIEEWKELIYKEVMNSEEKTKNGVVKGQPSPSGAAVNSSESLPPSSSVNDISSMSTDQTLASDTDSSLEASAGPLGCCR
CK2a1, sequence (P68400 whole entry): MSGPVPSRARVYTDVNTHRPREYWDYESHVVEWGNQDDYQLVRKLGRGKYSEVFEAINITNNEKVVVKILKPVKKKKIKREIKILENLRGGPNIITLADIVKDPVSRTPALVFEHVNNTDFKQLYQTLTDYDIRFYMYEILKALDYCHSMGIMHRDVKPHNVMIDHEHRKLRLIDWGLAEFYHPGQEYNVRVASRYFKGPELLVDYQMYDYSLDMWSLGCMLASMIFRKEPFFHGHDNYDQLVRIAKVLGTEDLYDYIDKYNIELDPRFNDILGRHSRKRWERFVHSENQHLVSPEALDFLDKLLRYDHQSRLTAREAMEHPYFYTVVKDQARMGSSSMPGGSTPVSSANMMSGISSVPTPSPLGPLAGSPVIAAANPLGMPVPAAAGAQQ

## Cc1cccc(-c2ccc(-c3cc4cnc(NCCCN5CCNCC5)nc4n(CCCCN)c3=O)c(Cl)c2)n1 [compound 29, 8-(4-Aminobutyl)-6-(2-chloro-4-(6-methylpyridin-2-yl)phenyl)-2-((3-(piperazin-1-yl)propyl)amino)pyrido[2,3-d]pyrimidin-7(8H)-one]
[1]
  ΔTm 29: -0.9 °C
[2]
  ΔTm 29: 4.6 °C
[3]
  ΔTm 29: 0.1 °C
[4]
  ΔTm 29: -0.2 °C
[5]
  ΔTm 29: 0.9 °C
[6]
  ΔTm 29: -1.3 °C
[7]
  ΔTm 29: 0.8 °C
[8]
  ΔTm 29: 0.7 °C
[9]
  ΔTm 29: 14.3 °C

## Cc1cccc(-c2ccc(-c3cc4cnc(NCCCN5CCCC5=O)nc4n(CCCCN)c3=O)c(Cl)c2)n1 [compound 27, MR30]
[1]
  ΔTm MR30 (27): -2.8 °C
[2]
  ΔTm MR30 (27): 0.8 °C
[3]
  ΔTm MR30 (27): -0.4 °C
[4]
  ΔTm MR30 (27): -0.4 °C
[5]
  ΔTm MR30 (27): 1.4 °C
[6]
  ΔTm MR30 (27): -1.4 °C
[7]
  ΔTm MR30 (27): 1.7 °C
[8]
  ΔTm MR30 (27): 0.4 °C
[9]
  ΔTm MR30 (27): 9.8 °C

## Cc1cccc(-c2ccc(-c3cc4cnc(Nc5ccc(O)cc5)nc4n(CCCCN)c3=O)c(Cl)c2)n1 [compound 31, 8-(4-Aminobutyl)-6-(2-chloro-4-(6-methylpyridin-2-yl)phenyl)-2-((4-hydroxyphenyl)amino) pyrido[2,3-d]pyrimidin-7(8H)-one]
[1]
  ΔTm 31: -2.3 °C
[2]
  ΔTm 31: 11.7 °C
[3]
  ΔTm 31: 1.4 °C
[4]
  ΔTm 31: 0.0 °C
[5]
  ΔTm 31: 6.7 °C
[6]
  ΔTm 31: -2.0 °C
[7]
  ΔTm 31: 4.7 °C
[8]
  ΔTm 31: 6.5 °C
[9]
  ΔTm 31: 16.1 °C

## Cc1cccc(-c2ccc(-c3cc4cnc(Nc5ccc(CCCO)cc5)nc4n(CCCCN)c3=O)c(Cl)c2)n1 [compound 30, 8-(4-Aminobutyl)-6-(2-chloro-4-(6-methylpyridin-2-yl)phenyl)-2-((4-(3-hydroxypropyl)phenyl)amino)pyrido[2,3-d]pyrimidin-7(8H)-one]
[1]
  ΔTm 30: -2.8 °C
[2]
  ΔTm 30: 12.3 °C
[3]
  ΔTm 30: 1.2 °C
[4]
  ΔTm 30: -1.1 °C
[5]
  ΔTm 30: 4.8 °C
[6]
  ΔTm 30: -5.0 °C
[7]
  ΔTm 30: 4.6 °C
[8]
  ΔTm 30: 6.4 °C
[9]
  ΔTm 30: 15.5 °C

## Cc1cccc(-c2ccc(-c3cc4cnc(Nc5cc(C(F)(F)F)ccc5C)nc4n(CCCCN)c3=O)c(Cl)c2)n1 [compound 28, 8-(4-Aminobutyl)-6-(2-chloro-4-(6-methylpyridin-2-yl)phenyl)-2-((2-methyl-5-(trifluoromethyl)phenyl)amino)pyrido[2,3-d]pyrimidin-7(8H)-one]
[1]
  ΔTm 28: -4.3 °C
[2]
  ΔTm 28: 8.4 °C
[3]
  ΔTm 28: 0.5 °C
[4]
  ΔTm 28: -0.6 °C
[5]
  ΔTm 28: -0.2 °C
[6]
  ΔTm 28: -2.4 °C
[7]
  ΔTm 28: 3.5 °C
[8]
  ΔTm 28: 0.3 °C
[9]
  ΔTm 28: 12.1 °C

## Cc1cccc(-c2ccc(-c3cc4cnc(Nc5ccc(C)c(O)c5)nc4n(CCCCN)c3=O)c(Cl)c2)n1 [compound 32, 8-(4-Aminobutyl)-6-(2-chloro-4-(6-methylpyridin-2-yl)phenyl)-2-((3-hydroxy-4-methylphenyl)amino)pyrido[2,3-d]pyrimidin-7(8H)-one]
[1]
  ΔTm 32: -2.6 °C
[2]
  ΔTm 32: 12.2 °C
[3]
  ΔTm 32: 1.0 °C
[4]
  ΔTm 32: -0.3 °C
[5]
  ΔTm 32: 5.3 °C
[6]
  ΔTm 32: -4.5 °C
[7]
  ΔTm 32: 4.5 °C
[8]
  ΔTm 32: 6.6 °C
[9]
  ΔTm 32: 15.4 °C

— doi:10.1101/2023.11.24.568596v1 (biorxiv, 2023)
